Data published in PubChem BioAssay AID1963970 (Molecular Pharmacology Branch, DTP, NCI, 2024).

System: 931267-113-T-J1-PDC multicell spheroid viability
Experiment: Anticancer human tumor 931267-113-T-J1-PDC patient-derived colon adenocarcinoma cell line growth inhibition [PI3K]
Conditions: for viability, T/C: stronger effect = lower value; active = viability on the fitted dose curve at most 10% of control; inactive = the rest
Outline: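 Agents were dosed from a top concentration near clinical Cmax (otherwise 10 microM) in half-log decrements, alone or combined with PI3K inhibitors. The spheroids contain tumor cells plus endothelial (HUVEC) and MSC stroma; viability is measured.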

[1] = curve of first compound, second compound 0.00316 µM
[2] = curve of first compound, second compound 0.01 µM
[3] = curve of first compound, second compound 0.0316 µM
[4] = curve of first compound, second compound 0.1 µM
[5] = curve of first compound, second compound 0.316 µM
[6] = curve of first compound, second compound 1 µM
[7] = second compound 0.00316 µM, first compound 0.0316 µM
[8] = second compound 0.00316 µM, first compound 0.1 µM
[9] = second compound 0.00316 µM, first compound 0.316 µM
[10] = second compound 0.00316 µM, first compound 1 µM
[11] = second compound 0.00316 µM, first compound 3.16 µM
[12] = second compound 0.00316 µM, first compound 10 µM
[13] = second compound 0.01 µM, first compound 0.0316 µM
[14] = second compound 0.01 µM, first compound 0.1 µM
[15] = second compound 0.01 µM, first compound 0.316 µM
[16] = second compound 0.01 µM, first compound 1 µM
[17] = second compound 0.01 µM, first compound 3.16 µM
[18] = second compound 0.01 µM, first compound 10 µM
[19] = second compound 0.0316 µM, first compound 0.0316 µM
[20] = second compound 0.0316 µM, first compound 0.1 µM
[21] = second compound 0.0316 µM, first compound 0.316 µM
[22] = second compound 0.0316 µM, first compound 1 µM
[23] = second compound 0.0316 µM, first compound 3.16 µM
[24] = second compound 0.0316 µM, first compound 10 µM
[25] = second compound 0.1 µM, first compound 0.0316 µM
[26] = second compound 0.1 µM, first compound 0.1 µM
[27] = second compound 0.1 µM, first compound 0.316 µM
[28] = second compound 0.1 µM, first compound 1 µM
[29] = second compound 0.1 µM, first compound 3.16 µM
[30] = second compound 0.1 µM, first compound 10 µM
[31] = second compound 0.316 µM, first compound 0.0316 µM
[32] = second compound 0.316 µM, first compound 0.1 µM
[33] = second compound 0.316 µM, first compound 0.316 µM
[34] = second compound 0.316 µM, first compound 1 µM
[35] = second compound 0.316 µM, first compound 3.16 µM
[36] = second compound 0.316 µM, first compound 10 µM
[37] = second compound 1 µM, first compound 0.0316 µM
[38] = second compound 1 µM, first compound 0.1 µM
[39] = second compound 1 µM, first compound 0.316 µM
[40] = second compound 1 µM, first compound 1 µM
[41] = second compound 1 µM, first compound 3.16 µM
[42] = second compound 1 µM, first compound 10 µM
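Also: viability read 7 days after compound addition.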

Cn1cnc2c(F)c(Nc3ccc(Br)cc3Cl)c(C(=O)NOCCO)cc21 + CC(Nc1ccc2c(c1)OCCn1cc(N3C(=O)OCC3C(F)F)nc1-2)C(N)=O
36.4 nM: IC50 [5]
active: viability, T/C (second compound 0.0316 µM, first compound 3 µM) 9.45% | viability, T/C (second compound 0.1 µM, first compound 3 µM) 8.34% | viability, T/C (second compound 0.316 µM, first compound 3 µM) 6.16% | viability, T/C (second compound 1 µM, first compound 0.949 µM) 10.3% | viability, T/C (second compound 1 µM, first compound 3 µM) 4.28%
119 nM: IC50 [1]
80.1 nM: IC50 [3]
inactive: viability, T/C (second compound 0.00316 µM, first compound 0.00949 µM) 69.8% | viability, T/C (second compound 0.00316 µM, first compound 0.03 µM) 71.2% | viability, T/C (second compound 0.00316 µM, first compound 0.0949 µM) 52.1% | viability, T/C (second compound 0.00316 µM, first compound 0.3 µM) 33.3% | viability, T/C (second compound 0.00316 µM, first compound 0.949 µM) 21.4% | viability, T/C (second compound 0.00316 µM, first compound 3 µM) 11.4% | viability, T/C (second compound 0.01 µM, first compound 0.00949 µM) 91.1% | viability, T/C (second compound 0.01 µM, first compound 0.03 µM) 74.7% | viability, T/C (second compound 0.01 µM, first compound 0.0949 µM) 50% | viability, T/C (second compound 0.01 µM, first compound 0.3 µM) 31% | viability, T/C (second compound 0.01 µM, first compound 0.949 µM) 15.3% | viability, T/C (second compound 0.01 µM, first compound 3 µM) 10.8% | viability, T/C (second compound 0.0316 µM, first compound 0.00949 µM) 89.6% | viability, T/C (second compound 0.0316 µM, first compound 0.03 µM) 69.5% | viability, T/C (second compound 0.0316 µM, first compound 0.0949 µM) 47.9% | viability, T/C (second compound 0.0316 µM, first compound 0.3 µM) 25.2% | viability, T/C (second compound 0.0316 µM, first compound 0.949 µM) 15.2% | viability, T/C (second compound 0.1 µM, first compound 0.00949 µM) 75.9% | viability, T/C (second compound 0.1 µM, first compound 0.03 µM) 61.8% | viability, T/C (second compound 0.1 µM, first compound 0.0949 µM) 39.3% | viability, T/C (second compound 0.1 µM, first compound 0.3 µM) 21.3% | viability, T/C (second compound 0.1 µM, first compound 0.949 µM) 15.2% | viability, T/C (second compound 0.316 µM, first compound 0.00949 µM) 78.3% | viability, T/C (second compound 0.316 µM, first compound 0.03 µM) 53.9% | viability, T/C (second compound 0.316 µM, first compound 0.0949 µM) 31.3% | viability, T/C (second compound 0.316 µM, first compound 0.3 µM) 17.2% | viability, T/C (second compound 0.316 µM, first compound 0.949 µM) 10.9% | viability, T/C (second compound 1 µM, first compound 0.00949 µM) 63.1% | viability, T/C (second compound 1 µM, first compound 0.03 µM) 42% | viability, T/C (second compound 1 µM, first compound 0.0949 µM) 28.7% | viability, T/C (second compound 1 µM, first compound 0.3 µM) 15.9%
19.8 nM: IC50 [6]
54.6 nM: IC50 [4]
99.7 nM: IC50 [2]

CC(Nc1ccc2c(c1)OCCn1cc(N3C(=O)OCC3C(F)F)nc1-2)C(N)=O (centres undefined)
> 1000 nM: IC50 (compound alone, run of 05/08/2023)
inactive: viability, T/C (compound 0.00316 µM) 99.8% [middle of 8 runs] | viability, T/C (compound 0.01 µM) 100% [middle of 8 runs] | viability, T/C (compound 0.0316 µM) 96.4% [middle of 8 runs] | viability, T/C (compound 0.1 µM) 83.7% [middle of 8 runs] | viability, T/C (compound 0.316 µM) 86% [middle of 8 runs] | viability, T/C (compound 1 µM) 83.1% [middle of 8 runs]

CC(Cn1ccc(-c2ccc(C#N)c(Cl)c2)n1)NC(=O)c1cc(C(C)O)[nH]n1 (centres undefined) + COc1c(OCCCN2CCOCC2)ccc2c3n(c(=NC(=O)c4cnc(N)nc4)nc12)CCN3
inactive: viability, T/C [7] 95.4% | viability, T/C [8] 96.7% | viability, T/C [9] 104% | viability, T/C [10] 99.4% | viability, T/C [11] 99.8% | viability, T/C [12] 104% | viability, T/C [13] 89.7% | viability, T/C [14] 102% | viability, T/C [15] 97.8% | viability, T/C [16] 100% | viability, T/C [17] 92.5% | viability, T/C [18] 85.9% | viability, T/C [19] 91.8% | viability, T/C [20] 96.4% | viability, T/C [21] 78.6% | viability, T/C [22] 82.5% | viability, T/C [23] 78.4% | viability, T/C [24] 70.5% | viability, T/C [25] 68.8% | viability, T/C [26] 72.5% | viability, T/C [27] 64.9% | viability, T/C [28] 65.4% | viability, T/C [29] 65.3% | viability, T/C [30] 63.1% | viability, T/C [31] 47.5% | viability, T/C [32] 44.1% | viability, T/C [33] 45.3% | viability, T/C [34] 42.4% | viability, T/C [35] 47.7% | viability, T/C [36] 37.9% | viability, T/C [37] 32.5% | viability, T/C [38] 34.4% | viability, T/C [39] 30.9% | viability, T/C [40] 32.5% | viability, T/C [41] 34.5% | viability, T/C [42] 29.5%
> 10000 nM: IC50 [1] | IC50 [2] | IC50 [3] | IC50 [4]
< 31.6 nM: IC50 [5] | IC50 [6]

CC(C)NCC(C(=O)N1CCN(c2ncnc3c2C(C)CC3O)CC1)c1ccc(Cl)cc1 (centres undefined) + COc1c(OCCCN2CCOCC2)ccc2c3n(c(=NC(=O)c4cnc(N)nc4)nc12)CCN3
inactive: viability, T/C [7] 94.2% | viability, T/C [8] 96.2% | viability, T/C [9] 94.3% | viability, T/C [10] 94.7% | viability, T/C [11] 95% | viability, T/C [12] 71.1% | viability, T/C [13] 96.3% | viability, T/C [14] 93.7% | viability, T/C [15] 93.2% | viability, T/C [16] 91.2% | viability, T/C [17] 97.8% | viability, T/C [18] 71.4% | viability, T/C [19] 84.9% | viability, T/C [20] 84.9% | viability, T/C [21] 81.8% | viability, T/C [22] 81.6% | viability, T/C [23] 83.3% | viability, T/C [24] 65.8% | viability, T/C [25] 67.8% | viability, T/C [26] 71.1% | viability, T/C [27] 71.6% | viability, T/C [28] 69.7% | viability, T/C [29] 67.5% | viability, T/C [30] 55.7% | viability, T/C [31] 43.6% | viability, T/C [32] 44.8% | viability, T/C [33] 44% | viability, T/C [34] 47.7% | viability, T/C [35] 49.2% | viability, T/C [36] 44.1% | viability, T/C [37] 32.9% | viability, T/C [38] 30.8% | viability, T/C [39] 35.8% | viability, T/C [40] 31% | viability, T/C [41] 42% | viability, T/C [42] 33.3%
> 10000 nM: IC50 [1] | IC50 [2] | IC50 [3] | IC50 [4]
< 31.6 nM: IC50 [5] | IC50 [6]

Cn1nccc1Nc1nccc(-c2ccn(C(CO)c3ccc(Cl)c(F)c3)c(=O)c2)n1 (centres undefined)
inactive: viability, T/C (compound 0.0316 µM) 100% [middle of 4 runs] | viability, T/C (compound 0.1 µM) 91.3% [middle of 4 runs] | viability, T/C (compound 0.316 µM) 90.2% [middle of 4 runs] | viability, T/C (compound 1 µM) 74.1% [middle of 4 runs] | viability, T/C (compound 3.16 µM) 67.2% [middle of 4 runs] | viability, T/C (compound 10 µM) 40.4% [middle of 4 runs]
